pIC50: −log10 of the molar value. Several values for one entry are separate records, joined by “and”; a condition that tells them apart may be missing. Equal values may be shown once. Activity calls are given as the source filed them. The rule behind the calls is not given here.
Tested on: HEK-293T NF-kB luciferase reporter, luminescence counterscreen
Assay: NF-kB reporter suppression in HEK-293T cells – luminescence, B-cell screen hits, counter-screen for BCR NF-kB inhibitor project, dose response (AID 489022)

Structure (SMILES)	IC50	pIC50
COc1ccc(-c2nn(C)c(=O)c3ccccc23)cc1NS(C)(=O)=O	43.9 µM (inactive)	–
Oc1[nH]c2ccccc2c1N=Nc1nc(Nc2ccccc2)nc(N2CCOCC2)n1	35.5 µM (inactive)	–
COc1cc(C2C(C#N)=C(N)Oc3cc(N)ccc32)cc(OC)c1OC (stereo unspecified)	> 80 µM (inactive)	–
C=CCn1c(O)c(C(CC)=NC(C)c2ccccc2)c(=O)[nH]c1=O (stereo unspecified)	25 µM (inactive)	–
CCN(CC)c1ccc(/C=N/N=C(c2ccccc2)c2ccccc2)c(O)c1	> 80 µM (inactive)	–
Cc1ccc(O)c(NC(=O)COc2cc(C)ccc2C)c1	> 80 µM (inactive)	–
Cc1cc(C)cc(NC(=O)c2nnn(Cc3cc(C)ccc3C)c2N)c1	–	5.32
CCN(CC)CCCN=Cc1c(-c2ccccc2)[nH]n(-c2nc3ccccc3s2)c1=O	> 80 µM (inactive)	–
CN(C)C(=O)CCc1nc(-c2ccc(C(C)(C)C)cc2)no1	51.8 µM (inactive)	–
COc1cc(C[C@@H]2C(=O)OC[C@H]2Cc2ccc(OC)c(OC)c2)ccc1O	–	6.18
CCNC(=O)CCc1nc(-c2ccc(C(C)(C)C)cc2)no1	34.9 µM (inactive)	–
CC1=CC(C)(C)Nc2ccc(OC(=O)CN3C(=O)CCC3=O)cc21	–	4.95
CCc1sc(C(=O)Nc2cccc(-n3cnnn3)c2)cc1C	> 80 µM (inactive)	–
CCOc1cc2nc(-c3ccc(OC)c(OC)c3)nc(N3CCOCC3)c2cc1OC	–	5.12
Cn1c(=O)cc(Nc2ccccc2)c2c(=O)n(-c3ccccc3)c(=O)n(-c3ccccc3)c21	79.1 µM (inactive)	–
CN1C(=O)CSc2ccc(NC(=O)N3CCN(c4ccccc4)CC3)cc21	50.5 µM (inactive)	–
COc1ccc(OC)c(NC(=O)c2[nH]c(C)c(C(C)=O)c2C)c1	> 80 µM (inactive)	–
COc1ccc(-c2ccc(N(C)C)cc2)cc1[C@H]1[C@H]2C=CC[C@@H](C)[C@@H]2C(=O)N1Cc1ccccc1	> 80 µM (inactive)	–
COc1cc(-c2cc(=O)c3c(O)c(OC)c(OC)c(OC)c3o2)cc(OC)c1OC	> 80 µM (inactive)	–
O=c1c(C=NCCCO)c(-c2ccccc2)[nH]n1-c1nc2ccccc2s1	> 80 µM (inactive)	–
CC(C)Oc1ccc(C(=O)Nc2ccc(N(C)C)cc2)cc1	> 80 µM (inactive)	–
COc1ccc(NC(=O)c2cc3c(Cl)nc4ccccc4c3s2)cc1OC	> 80 µM (inactive)	–
COc1cccc(/C=C2\SC(=S)N(CCCC(=O)NC3=NCCS3)C2=O)c1	69.1 µM (inactive)	–
Cc1ccc(-c2nsc3c(N4CCC(C(N)=O)CC4)ncnc23)cc1	> 80 µM (inactive)	–

Structure (SMILES)	IC50	pIC50
CCCCCC/C=C/c1ccc(OC)c([C@H]2[C@H]3C=CC[C@@H](C)[C@@H]3C(=O)N2Cc2ccccc2)c1	> 80 µM (inactive)	–
CC(C)(C)C(=O)/C(=C/c1ccncc1)n1cncn1	20.9 µM (inactive)	–
C/C=C(/C)C(=O)OC1Cc2c(ccc3ccc(=O)oc23)OC1(C)C (stereo unspecified)	23.5 µM (inactive)	–
CN1CCN(C(=O)c2ccccc2N(Cc2ccccc2)S(=O)(=O)c2ccccc2)CC1	45.4 µM (inactive)	–
Cn1c(=O)n(C)c2cc(NC(=O)CSc3nnc(-c4ccccc4O)n3-c3ccccc3)ccc21	–	4.74
CCn1c(=O)cc(OCC(=O)NCc2ccc(C)o2)c2ccccc21	> 80 µM (inactive)	–
N=c1ccn(Cc2c(Cl)cccc2Cl)cc1	–	4.85
CN(C)S(=O)(=O)c1ccc(NC(=O)N2CCN(c3ccccc3)CC2)cc1	> 80 µM (inactive)	–
COC(=O)[C@@H]1Cc2c([nH]c3ccccc23)C(C)(C)N1C(=O)CCl	36 µM (inactive)	–
CCN1C(=O)c2cccc3c(S(=O)(=O)N4CCC(C)CC4)ccc1c23	–	4.76
CC(=O)c1cn(CCOc2cc(C)ccc2C)c2ccccc12	–	6.54
CCCCOc1ccc(NC(=O)C(=O)NCCCn2ccnc2)cc1	44.6 µM (inactive)	–
CC(C)CN(C(=O)COC(=O)C12CC3CC(CC(C3)C1)C2)c1c(N)n(Cc2ccccc2)c(=O)[nH]c1=O	–	4.97
Cc1cc(=O)[nH]c2c(C)cc(S(=O)(=O)N3CCCCC3)cc12	> 80 µM (inactive)	–
CCOc1ccc(-c2nnc(SCC(=O)Nc3cc(C)on3)o2)cc1	> 80 µM (inactive)	–
Cc1ccccc1Nc1nc(Cl)c(C=O)s1	> 80 µM (inactive)	–
CCOc1ccc(-c2c[n+]3c(n2-c2ccccc2)CCCCC3)cc1	–	5.48
CNC(=O)c1cccn(Cc2ccc(C(F)(F)F)cc2)c1=O	35.5 µM (inactive)	–
COc1ccc(/C=C2\SC(=S)N(CCC(=O)Nc3ccc(C(=O)O)cc3)C2=O)cc1OC	> 80 µM (inactive)	–
COc1ccc(-c2ccc(C)cc2)cc1[C@H]1[C@H]2C=CC[C@@H](C)[C@@H]2C(=O)N1Cc1ccccc1	48.4 µM (inactive)	–
C=C(C)[C@@H]1CCC2(C(=O)O)CC[C@]3(C)[C@H](CC[C@@H]4[C@@]5(C)CCC(=O)C(C)(C)[C@@H]5CC[C@]43C)[C@@H]12 (stereo partly specified)	–	5.48
O=C(NCCC1CCCCN1S(=O)(=O)c1ccc(Cl)cc1)C(=O)NCc1ccncc1 (stereo unspecified)	20.4 µM (inactive)	–
N#CC1=C(N)Oc2cc(Nc3ccccc3)ccc2C1c1ccncc1 (stereo unspecified)	–	5.21
COc1ccc(-c2ccc(OC)c([C@H]3[C@H]4C=CC[C@@H](C)[C@@H]4C(=O)N3Cc3ccccc3)c2)cc1	55.5 µM (inactive)	–

Structure (SMILES)	IC50	pIC50
COc1ccc(OCc2cccc(C(=O)Nn3cc([N+](=O)[O-])cn3)c2)cc1	–	4.92
COc1cc(OC)c(/C=N/NC(N)=S)cc1Br	> 80 µM (inactive)	–
COc1ccc(OC)c(S(=O)(=O)Nc2ccc(-c3ccc4nnc(C)n4n3)cc2)c1	32.2 µM (inactive)	–
O=C1NC[C@H](c2ccccc2)OC(=O)[C@@H](Cc2ccc(F)cc2)C/C=C\C[C@H]1CC(=O)N(CCO)Cc1ccccc1	–	4.77
CN(C)c1cc[n+](Cc2c(Cl)cccc2Cl)cc1	–	5.01
Cc1[nH]c2ccccc2c1C(=O)CN1C(=O)NC2(CC(C)CC(C)(C)C2)C1=O (stereo unspecified)	43.3 µM (inactive)	–
COc1ccc(C(C(=O)NC2CCCCC2)N(C(=O)CCl)c2ccc(Cl)cc2)cc1 (stereo unspecified)	25.1 µM (inactive)	–
COc1ccc(-c2noc(N3CCC(C(=O)Nc4ccc(F)cc4F)CC3)n2)cc1	> 80 µM (inactive)	–
O=C(CCl)Nc1ccccc1Sc1ccccc1	37.8 µM (inactive)	–
CCn1c(=O)c2cc(C(=O)NC(C)C)sc2c2ccccc21	> 80 µM (inactive)	–
O=C(CCCN1C(=O)/C(=C/c2ccccc2Cl)SC1=S)Nc1cccnc1	28.7 µM (inactive)	–
CCOc1ccc(-c2cc(CCCC(=O)NCCCOC)no2)cc1	60 µM (inactive)	–
COc1ccc(/C=C2\SC(=S)N(CCC(=O)Nc3cccc(O)c3)C2=O)cc1	> 80 µM (inactive)	–
O=C(CSCCO)Nc1ccc(C23CC4CC(CC(C4)C2)C3)cc1	–	5.41
CCOC(=O)CNC(=O)CSc1nnc(NC(=O)c2ccc(C)cc2)s1	–	5.15
CCc1ccc(/C=C2/SC(=S)N(CCC(=O)Nc3cccnc3)C2=O)cc1	> 80 µM (inactive)	–
COc1cc(-c2[nH]nc3c2C(c2ccco2)C(C#N)=C(N)O3)cc(OC)c1OC (stereo unspecified)	> 80 µM (inactive)	–
Cc1cc(NC(=O)CCCN2C(=O)/C(=C/c3ccccc3Cl)SC2=S)no1	> 80 µM (inactive)	–
Cc1ccc(/C=C2\SC(=S)N(CCCC(=O)Nc3cc(C)on3)C2=O)cc1	> 80 µM (inactive)	–
COc1ccc(/C=N/OCC(=O)NC(c2ccccc2)c2ccccc2)cc1OC	–	6.14
CCC(=O)N(C1=C(NC)C(=O)c2ccccc2C1=O)C(C)C	> 80 µM (inactive)	–
CC1=CC(C)(C)Nc2ccc(OC(=O)c3ccco3)cc21	–	4.79
Cc1cc(C)c2nc(NC(=O)C3CSC4(C)CCC(=O)N34)sc2c1 (stereo unspecified)	> 80 µM (inactive)	–
Fc1ccc(C2=Nn3c(nnc3-c3n[nH]c4c3CCC4)SC2)cc1	–	4.78

Structure (SMILES)	IC50	pIC50
Cc1cc(C)c(S(=O)(=O)NCc2ccncc2)c(C)c1	–	6.01
O=C(CCCN1C(=O)/C(=C/c2ccccc2Cl)SC1=S)NNC(=O)c1ccc(Cl)cc1	> 80 µM (inactive)	–
Cc1nc2cc(-c3cccc(F)c3)nn2c(C)c1CCC(=O)N1CCC2(CC1)OCCO2	34 µM (inactive)	–
CCN(CC)CCOC(=O)c1ccc(NC(=O)COc2cc(=O)n(CC)c3ccccc23)cc1	43.8 µM (inactive)	–
CCn1c(=O)cc(SCC(=O)N2CCN(C(=O)c3ccco3)CC2)c2ccccc21	40.9 µM (inactive)	–
CC1CC(C)(C)Nc2ccc(OC(=O)c3ccco3)cc21 (stereo unspecified)	–	5.05
CC(=C\c1ccccc1)/C=C1/SC(=O)N(CCCC(=O)Nc2ccc(C(=O)O)cc2)C1=O	> 80 µM (inactive)	–
CCCS(=O)(=O)Nc1cccc(-c2ccc3nnc(C)n3n2)c1	> 80 µM (inactive)	–
O=C(C1CCC1)N1CCN(S(=O)(=O)c2ccc([N+](=O)[O-])cc2)CC1	> 80 µM (inactive)	–
CCOC(=O)c1sc(NC(=O)c2cc(-c3ccccc3C)nc3ccccc23)c(C#N)c1C	–	6.54
COc1ccc(/C=C2/SC(=S)N(CCCC(=O)Nc3cccc(O)c3)C2=O)cc1	27.5 µM (inactive)	–
C[C@H]1CCC/C=C/[C@@H]2C[C@H](O)C[C@H]2[C@H](O)/C=C/C(=O)O1	–	6.38 and 6.28
CCOC(=O)c1cc2c(=O)n3ccccc3nc2n(CC(C)C)c1=NC(=O)c1c(-c2c(F)cccc2Cl)noc1C	–	5.27
CC(C)C(c1nnnn1Cc1ccccc1)N(Cc1ccco1)Cc1cccs1 (stereo unspecified)	–	5.05
CCOC(=O)C(=CNc1cc(C)ccc1C)C(=O)OCC	–	4.72
Cc1ccc(C(=O)OCC(=O)N(CC(C)C)c2c(N)n(Cc3ccccc3)c(=O)[nH]c2=O)o1	> 80 µM (inactive)	–
COc1ccc(NC(=O)CN(C)C(=O)C2(c3ccccc3)CCCC2)cc1	21.3 µM (inactive)	–
Cc1ccc(-c2nn3c(C)nnc3c3ccccc23)cc1S(=O)(=O)NCc1ccco1	–	4.81
C(=N\Nc1nc(Nc2ccccc2)nc(Nc2ccccc2)n1)/c1cccnc1	> 80 µM (inactive)	–
Cn1c(=O)n(C)c2cc(/C=C3/NC(=O)N(Cc4ccccc4)C3=O)ccc21	> 80 µM (inactive)	–
C=CCn1c(O)c(C(C)=NC(C)c2ccccc2)c(=O)[nH]c1=O (stereo unspecified)	60.2 µM (inactive)	–
Cc1nc2cc(-c3ccc(Cl)cc3)nn2c(C)c1CCC(=O)NC(C)c1ccc2c(c1)OCCO2 (stereo unspecified)	–	4.94
CCNc1nc(C)c2cc(Br)c(=O)n(CC)c2n1	> 80 µM (inactive)	–
Cc1cc(OC(=O)c2ccccc2Cl)cc(=O)n1C	> 80 µM (inactive)	–

Source: PubChem BioAssay AID489022 (Sanford-Burnham Center for Chemical Genomics, 2010)
